Experiments:
[1] = target: Macrophage colony-stimulating factor 1 receptor (Homo sapiens) (UniProt P07333); assay: Residual activity of CSF1R at 0.1 uM by microplate scintillation counting
[2] = target: Fibroblast growth factor receptor 4 (Homo sapiens) (UniProt P22455); assay: Residual activity of FGFR4 at 0.1 uM by microplate scintillation counting
[3] = target: MAP kinase-activated protein kinase 3 (Homo sapiens) (UniProt Q16644); assay: Residual activity of MAPKAPK3 at 1 uM by microplate scintillation counting
Sequence of MAP kinase-activated protein kinase 3 (Homo sapiens) (Q16644 whole entry, looked up): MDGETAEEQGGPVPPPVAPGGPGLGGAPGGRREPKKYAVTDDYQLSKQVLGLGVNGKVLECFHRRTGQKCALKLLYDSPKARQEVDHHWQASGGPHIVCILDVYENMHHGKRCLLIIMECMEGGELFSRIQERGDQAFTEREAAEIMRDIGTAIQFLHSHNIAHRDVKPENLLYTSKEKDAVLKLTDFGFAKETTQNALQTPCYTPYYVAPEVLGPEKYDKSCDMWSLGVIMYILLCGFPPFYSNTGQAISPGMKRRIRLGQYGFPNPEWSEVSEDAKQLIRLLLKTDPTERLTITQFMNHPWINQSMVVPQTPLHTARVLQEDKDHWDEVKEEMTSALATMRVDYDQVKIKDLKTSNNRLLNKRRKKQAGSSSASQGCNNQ

[4] = target: Mitogen-activated protein kinase kinase kinase 14 (Homo sapiens) (UniProt Q99558); assay: Residual activity of NIK at 1 uM by microplate scintillation counting
Sequence of Mitogen-activated protein kinase kinase kinase 14 (Homo sapiens) (Q99558 whole entry, looked up): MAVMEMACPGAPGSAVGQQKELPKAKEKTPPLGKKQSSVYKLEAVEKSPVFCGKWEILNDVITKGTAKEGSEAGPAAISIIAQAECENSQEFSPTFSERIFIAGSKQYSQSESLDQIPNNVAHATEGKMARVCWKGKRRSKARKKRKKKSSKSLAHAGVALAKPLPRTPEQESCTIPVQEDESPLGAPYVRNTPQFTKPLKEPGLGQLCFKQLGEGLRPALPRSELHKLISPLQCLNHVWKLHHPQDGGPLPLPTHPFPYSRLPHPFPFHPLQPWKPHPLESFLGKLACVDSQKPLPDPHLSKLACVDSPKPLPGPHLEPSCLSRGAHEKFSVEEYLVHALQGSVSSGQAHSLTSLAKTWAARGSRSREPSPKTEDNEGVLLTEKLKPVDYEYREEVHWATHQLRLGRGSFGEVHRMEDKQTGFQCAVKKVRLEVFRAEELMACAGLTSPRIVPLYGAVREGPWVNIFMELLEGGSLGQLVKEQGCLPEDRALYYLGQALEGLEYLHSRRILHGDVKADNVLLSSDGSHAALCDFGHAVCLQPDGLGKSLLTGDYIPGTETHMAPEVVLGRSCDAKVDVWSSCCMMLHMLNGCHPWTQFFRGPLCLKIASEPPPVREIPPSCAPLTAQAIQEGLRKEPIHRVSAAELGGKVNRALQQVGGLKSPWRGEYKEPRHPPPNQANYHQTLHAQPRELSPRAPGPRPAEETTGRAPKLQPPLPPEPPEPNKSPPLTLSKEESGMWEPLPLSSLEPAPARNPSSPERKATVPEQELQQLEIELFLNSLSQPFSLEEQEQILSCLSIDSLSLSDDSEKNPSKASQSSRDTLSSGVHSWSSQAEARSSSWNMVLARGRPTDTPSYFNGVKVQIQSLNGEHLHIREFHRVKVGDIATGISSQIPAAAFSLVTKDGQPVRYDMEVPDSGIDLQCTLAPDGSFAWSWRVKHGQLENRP

[5] = target: Rho-associated protein kinase 2 (Homo sapiens) (UniProt O75116); assay: Residual activity of ROCK2 at 1 uM by microplate scintillation counting
Sequence of Rho-associated protein kinase 2 (Homo sapiens) (O75116 whole entry, looked up): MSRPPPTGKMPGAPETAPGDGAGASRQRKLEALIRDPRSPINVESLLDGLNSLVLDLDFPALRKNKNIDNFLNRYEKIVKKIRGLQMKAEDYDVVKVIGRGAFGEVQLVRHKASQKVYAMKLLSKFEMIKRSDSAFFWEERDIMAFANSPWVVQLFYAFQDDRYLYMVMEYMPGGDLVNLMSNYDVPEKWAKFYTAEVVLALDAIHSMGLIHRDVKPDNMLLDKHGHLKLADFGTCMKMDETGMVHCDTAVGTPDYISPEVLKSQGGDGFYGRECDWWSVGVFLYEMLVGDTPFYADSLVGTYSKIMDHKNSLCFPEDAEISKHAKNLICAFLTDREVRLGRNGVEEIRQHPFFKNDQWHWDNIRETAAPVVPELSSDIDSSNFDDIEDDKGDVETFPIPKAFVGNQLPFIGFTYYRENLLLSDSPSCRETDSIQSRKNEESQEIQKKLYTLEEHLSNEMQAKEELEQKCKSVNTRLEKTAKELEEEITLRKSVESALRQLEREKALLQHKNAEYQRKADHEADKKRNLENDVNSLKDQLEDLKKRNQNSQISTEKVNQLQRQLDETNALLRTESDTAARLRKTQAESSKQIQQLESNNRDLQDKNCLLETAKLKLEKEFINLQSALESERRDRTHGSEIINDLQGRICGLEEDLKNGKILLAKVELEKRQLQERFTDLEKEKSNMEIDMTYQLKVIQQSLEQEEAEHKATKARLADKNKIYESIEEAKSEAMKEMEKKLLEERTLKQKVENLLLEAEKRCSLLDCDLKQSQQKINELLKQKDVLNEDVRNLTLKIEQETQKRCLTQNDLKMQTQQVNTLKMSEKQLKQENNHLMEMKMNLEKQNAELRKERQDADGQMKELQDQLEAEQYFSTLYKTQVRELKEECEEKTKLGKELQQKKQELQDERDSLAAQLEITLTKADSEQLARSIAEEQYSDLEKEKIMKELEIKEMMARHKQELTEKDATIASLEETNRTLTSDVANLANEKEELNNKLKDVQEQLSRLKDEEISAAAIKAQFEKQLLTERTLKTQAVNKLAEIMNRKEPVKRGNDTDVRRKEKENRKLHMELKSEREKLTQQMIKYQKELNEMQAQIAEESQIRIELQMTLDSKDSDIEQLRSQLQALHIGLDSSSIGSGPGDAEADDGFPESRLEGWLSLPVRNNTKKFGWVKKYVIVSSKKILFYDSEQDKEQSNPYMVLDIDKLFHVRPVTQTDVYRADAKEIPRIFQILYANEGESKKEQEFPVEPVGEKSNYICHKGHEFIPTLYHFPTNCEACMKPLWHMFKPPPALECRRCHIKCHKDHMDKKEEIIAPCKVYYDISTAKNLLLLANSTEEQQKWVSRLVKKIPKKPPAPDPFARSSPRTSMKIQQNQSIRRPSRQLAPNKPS

[6] = target: High affinity nerve growth factor receptor (Homo sapiens) (UniProt P04629); assay: Residual activity of TRK-A at 1 uM by microplate scintillation counting
[7] = target: Casein kinase II subunit alpha (Homo sapiens) (UniProt P68400); assay: Residual activity of CK2alpha1 at 10 uM by microplate scintillation counting
Sequence of Casein kinase II subunit alpha (Homo sapiens) (P68400 whole entry, looked up): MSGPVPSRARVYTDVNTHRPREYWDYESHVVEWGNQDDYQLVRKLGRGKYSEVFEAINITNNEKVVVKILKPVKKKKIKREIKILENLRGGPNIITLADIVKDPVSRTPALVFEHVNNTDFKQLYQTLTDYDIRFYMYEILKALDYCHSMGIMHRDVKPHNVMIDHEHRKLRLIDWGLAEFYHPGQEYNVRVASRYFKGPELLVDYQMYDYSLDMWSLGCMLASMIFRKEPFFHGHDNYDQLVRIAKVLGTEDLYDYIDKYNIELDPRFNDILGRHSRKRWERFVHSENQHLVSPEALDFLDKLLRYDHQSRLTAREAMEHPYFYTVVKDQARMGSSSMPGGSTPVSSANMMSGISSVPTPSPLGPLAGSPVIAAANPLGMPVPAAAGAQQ

[8] = test system: Epidermal growth factor receptor (Homo sapiens), P00533 [T790M]; assay: Residual activity of EGFR T790M mutant at 0.1 uM by microplate scintillation counting
[9] = target: T1, Eukaryotic translation initiation factor 2-alpha kinase 3 (Homo sapiens) (UniProt Q9NZJ5); assay: Residual activity of EIF2AK3 at 0.1 uM by microplate scintillation counting
T1 sequence (whole entry): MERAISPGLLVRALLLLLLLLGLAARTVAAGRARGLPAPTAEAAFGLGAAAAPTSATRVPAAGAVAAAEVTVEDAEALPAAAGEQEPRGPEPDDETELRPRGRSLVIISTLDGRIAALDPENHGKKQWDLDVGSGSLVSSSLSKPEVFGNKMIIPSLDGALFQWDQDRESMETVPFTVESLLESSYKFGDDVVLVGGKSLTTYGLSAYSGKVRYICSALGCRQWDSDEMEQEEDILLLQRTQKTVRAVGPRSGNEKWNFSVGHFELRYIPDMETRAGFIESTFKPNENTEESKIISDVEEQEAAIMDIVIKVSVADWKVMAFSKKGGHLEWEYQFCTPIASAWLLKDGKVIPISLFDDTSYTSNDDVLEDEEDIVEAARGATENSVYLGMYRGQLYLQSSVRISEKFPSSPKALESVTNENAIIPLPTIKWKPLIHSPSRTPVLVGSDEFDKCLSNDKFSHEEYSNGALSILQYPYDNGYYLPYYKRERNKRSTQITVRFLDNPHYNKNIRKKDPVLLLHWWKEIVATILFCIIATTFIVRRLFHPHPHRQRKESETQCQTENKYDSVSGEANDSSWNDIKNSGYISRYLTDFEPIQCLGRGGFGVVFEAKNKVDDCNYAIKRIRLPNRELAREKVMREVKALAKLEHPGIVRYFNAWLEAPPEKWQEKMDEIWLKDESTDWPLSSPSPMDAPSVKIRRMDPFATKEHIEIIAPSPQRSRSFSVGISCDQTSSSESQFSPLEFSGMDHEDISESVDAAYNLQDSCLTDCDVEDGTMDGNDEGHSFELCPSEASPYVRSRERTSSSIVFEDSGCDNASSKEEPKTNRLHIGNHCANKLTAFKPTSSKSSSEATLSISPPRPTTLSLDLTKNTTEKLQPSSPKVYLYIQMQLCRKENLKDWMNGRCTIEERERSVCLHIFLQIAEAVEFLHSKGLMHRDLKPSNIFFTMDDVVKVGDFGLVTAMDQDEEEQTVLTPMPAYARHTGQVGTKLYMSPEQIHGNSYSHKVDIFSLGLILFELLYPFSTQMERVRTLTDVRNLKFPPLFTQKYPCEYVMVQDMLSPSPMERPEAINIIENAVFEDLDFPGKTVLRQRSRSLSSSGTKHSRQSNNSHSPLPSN

[10] = target: T2, MAP kinase-activated protein kinase 5 (Homo sapiens) (UniProt Q8IW41); assay: Residual activity of MAPKAPK5 at 10 uM by microplate scintillation counting
T2 sequence (whole entry): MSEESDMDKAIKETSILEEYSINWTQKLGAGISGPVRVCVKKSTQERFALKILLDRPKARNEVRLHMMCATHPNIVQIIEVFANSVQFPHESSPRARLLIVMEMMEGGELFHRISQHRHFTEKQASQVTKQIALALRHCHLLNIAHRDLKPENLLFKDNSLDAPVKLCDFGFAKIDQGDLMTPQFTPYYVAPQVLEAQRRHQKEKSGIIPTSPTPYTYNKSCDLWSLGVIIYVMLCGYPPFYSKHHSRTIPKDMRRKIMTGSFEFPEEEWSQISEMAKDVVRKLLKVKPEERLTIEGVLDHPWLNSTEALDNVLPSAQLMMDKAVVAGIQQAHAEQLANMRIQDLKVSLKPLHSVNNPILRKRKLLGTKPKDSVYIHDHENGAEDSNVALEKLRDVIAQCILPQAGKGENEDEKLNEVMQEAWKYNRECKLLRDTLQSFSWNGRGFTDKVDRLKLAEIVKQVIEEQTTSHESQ

[11] = target: Serine/threonine-protein kinase Nek6 (Homo sapiens) (UniProt Q9HC98); assay: Residual activity of NEK6 at 10 uM by microplate scintillation counting
Sequence of Serine/threonine-protein kinase Nek6 (Homo sapiens) (Q9HC98 whole entry): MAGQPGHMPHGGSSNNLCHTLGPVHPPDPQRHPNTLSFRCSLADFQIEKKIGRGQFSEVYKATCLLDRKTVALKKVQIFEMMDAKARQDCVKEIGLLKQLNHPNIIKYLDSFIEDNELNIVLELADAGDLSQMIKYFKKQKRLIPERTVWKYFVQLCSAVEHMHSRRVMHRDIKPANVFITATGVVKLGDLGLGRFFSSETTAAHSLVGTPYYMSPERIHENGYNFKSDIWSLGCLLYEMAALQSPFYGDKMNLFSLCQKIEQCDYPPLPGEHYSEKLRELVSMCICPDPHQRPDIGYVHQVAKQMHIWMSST

[12] = target: Protein-tyrosine kinase 2-beta (Homo sapiens) (UniProt Q14289); assay: Residual activity of PYK2 at 0.1 uM by microplate scintillation counting
[13] = target: SRSF protein kinase 3 (Homo sapiens) (UniProt Q9UPE1); assay: Residual activity of STK23 at 0.1 uM by microplate scintillation counting
Sequence of SRSF protein kinase 3 (Homo sapiens) (Q9UPE1 whole entry): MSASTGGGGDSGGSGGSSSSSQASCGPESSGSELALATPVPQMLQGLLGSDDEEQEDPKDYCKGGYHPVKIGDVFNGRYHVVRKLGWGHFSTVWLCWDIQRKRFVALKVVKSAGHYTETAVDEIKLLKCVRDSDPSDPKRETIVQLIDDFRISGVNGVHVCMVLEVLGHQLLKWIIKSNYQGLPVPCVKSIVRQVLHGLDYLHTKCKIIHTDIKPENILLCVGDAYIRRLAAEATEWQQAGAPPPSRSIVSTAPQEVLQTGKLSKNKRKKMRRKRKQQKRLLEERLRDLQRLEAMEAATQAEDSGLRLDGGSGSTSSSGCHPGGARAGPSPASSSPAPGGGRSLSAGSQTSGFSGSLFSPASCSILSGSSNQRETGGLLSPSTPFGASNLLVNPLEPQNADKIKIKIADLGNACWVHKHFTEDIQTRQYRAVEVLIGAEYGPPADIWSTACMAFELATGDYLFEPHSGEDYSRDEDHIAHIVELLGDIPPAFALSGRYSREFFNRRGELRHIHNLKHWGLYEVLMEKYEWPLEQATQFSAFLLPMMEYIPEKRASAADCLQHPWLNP

Sequence of Macrophage colony-stimulating factor 1 receptor (Homo sapiens) (P07333 whole entry): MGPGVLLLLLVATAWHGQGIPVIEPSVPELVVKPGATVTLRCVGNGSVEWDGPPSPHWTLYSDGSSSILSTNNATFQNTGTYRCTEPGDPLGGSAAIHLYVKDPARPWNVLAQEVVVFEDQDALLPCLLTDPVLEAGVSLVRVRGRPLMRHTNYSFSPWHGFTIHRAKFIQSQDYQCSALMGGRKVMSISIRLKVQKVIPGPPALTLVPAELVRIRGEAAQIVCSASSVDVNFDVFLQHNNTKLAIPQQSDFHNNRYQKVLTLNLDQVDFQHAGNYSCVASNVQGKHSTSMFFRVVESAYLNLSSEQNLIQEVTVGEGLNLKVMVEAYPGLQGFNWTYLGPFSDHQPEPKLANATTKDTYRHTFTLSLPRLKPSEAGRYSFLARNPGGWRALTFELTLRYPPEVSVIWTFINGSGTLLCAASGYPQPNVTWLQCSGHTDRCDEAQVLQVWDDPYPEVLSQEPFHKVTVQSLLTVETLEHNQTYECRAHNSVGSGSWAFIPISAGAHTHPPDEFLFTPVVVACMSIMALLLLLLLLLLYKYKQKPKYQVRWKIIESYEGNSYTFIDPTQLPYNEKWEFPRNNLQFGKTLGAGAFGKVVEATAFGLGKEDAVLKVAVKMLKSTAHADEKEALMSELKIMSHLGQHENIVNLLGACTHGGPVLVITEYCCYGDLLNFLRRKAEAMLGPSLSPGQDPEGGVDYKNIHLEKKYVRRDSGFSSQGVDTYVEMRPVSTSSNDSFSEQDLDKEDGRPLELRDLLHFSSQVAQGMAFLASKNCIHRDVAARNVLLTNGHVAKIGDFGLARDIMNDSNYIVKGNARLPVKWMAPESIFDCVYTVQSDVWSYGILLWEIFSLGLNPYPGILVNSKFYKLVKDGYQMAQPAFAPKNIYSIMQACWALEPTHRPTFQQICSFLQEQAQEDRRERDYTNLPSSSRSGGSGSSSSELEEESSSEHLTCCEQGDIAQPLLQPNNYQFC

Row | residual activity [1] [%] | residual activity [2] [%] | residual activity [3] [%] | residual activity [4] [%] | residual activity [5] [%] | residual activity [6] [%] | residual activity [7] [%] | residual activity [8] [%] | residual activity [9] [%] | residual activity [10] [%] | residual activity [11] [%] | residual activity [12] [%] | residual activity [13] [%] | Structure (SMILES)
1 | 120 | 100 | 94 | 93 | 93 | 72 | 188 | 68 | 102 | 109 | 94 | 103 | 80 | COc1cc2c(Oc3ccc(-c4nc5ccccc5s4)cc3)ncnc2cc1OCCCN1CCCC1
2 | 93 | 104 | 85 | 85 | 101 | 83 | 229 | 97 | 90 | 143 | 96 | 102 | 88 | COc1cc2c(Oc3ccc(-c4nc5ccccc5s4)cc3)ncnc2cc1OCCCN1CCN(C)CC1
3 | 88 | 109 | 98 | 88 | 93 | 86 | 264 | 85 | 101 | 134 | 101 | 98 | 88 | COc1cc2c(Oc3ccc(-c4nc5ccccc5s4)cc3F)ncnc2cc1OCCCN1CCN(C)CC1

Reference: ChEMBL document CHEMBL1152560, “Substituted 2-arylbenzothiazoles as kinase inhibitors: hit-to-lead optimization” (Bioorg Med Chem, 2009)
